Laboratory results published in patent US10774083B2, “Heterocyclic amide compound” (TAKEDA PHARMACEUTICAL COMPANY LIMITED, priority 2016, dated 2020).

Experiments:
[1] = tested on: human ovarian cancer cells A2780; assay: proliferation inhibitory activity against human ovarian cancer cell A2780 (CellTiter-Glo); type: cell-based; details: A2780, 72 h, 1 μM test compound, 3 days of culture, read-out: proliferation inhibitory rate (%) of A2780 cells
How it was run: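 A2780 cells in RPMI-1640 with 10% FBS, compound added the day after seeding and cultured 3 days. Viability by CellTiter-Glo luminescence. Inhibition (%) calculated with cell-free wells as 100% inhibition.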

[2] = tested on: human fibrosarcoma cell line HT-1080; assay: antitumor action on mice transplanted with human fibrosarcoma cell line HT-1080; type: in vivo, mouse; details: HT-1080, 10 mg/kg orally, once per day, 11 days
Method: An antitumor action of the compound of the present invention on mice transplanted with human malignant melanoma cell line SKMEL-2 and human fibrosarcoma cell line HT-1080 was evaluated by the following method.
Human fibrosarcoma cell line HT-1080 was subcutaneously transplanted by injection into 7-week-old BALB/cA Jcl-nu/nu female mouse (CLEA Japan, Inc.) by 7.5×10^6 cells. At 8 days from transplantation, the tumor diameter of the engrafted tumor was measured and the tumor volume was calculated by the following formula. tumor volume=major axis×minor axis×minor axis×(½)
Individuals having a tumor volume of 100 to 300 mm^3 were selected for SKMEL-2, and individuals having a tumor volume of 200 to 400 mm^3 were selected for HT-1080, and 4 or 5 mice per group were used for the experiment. A 0.5% methylcellulose suspension of the test compound was orally administered to the mice at the dose (dose per administration), administration frequency and dosing period shown in Table 3. The tumor diameter was measured one day before the start of administration and one day after completion of administration and the tumor volume was calculated.
The tumor proliferation rate (T/C (%)) of the test compound administration group in comparison with the control administration group was calculated by the following formula. […]

[3] = molecular target: T1, human PRS protein (His-Avi-hEPRS (998-1512)) (Homo sapiens, UniProt P07814); assay: PRS inhibitory activity ([32P]pyrophosphate exchange enzyme assay); type: biochemical; details: 300 nM test compound; read-out: inhibitory rate (%) of PRS
T1 construct: to construct His-Avi-hEPRS (998-1512) expression plasmid; His tag (N); Avi tag (N); TEV cleavage site (ENLYFQG, then S; inferred from the forward primer hEPRS-TEV-NheF) (N); made in house; host or cells: E. coli BL21(DE3)
T1 sequence (P07814 998-1512 limits assumed): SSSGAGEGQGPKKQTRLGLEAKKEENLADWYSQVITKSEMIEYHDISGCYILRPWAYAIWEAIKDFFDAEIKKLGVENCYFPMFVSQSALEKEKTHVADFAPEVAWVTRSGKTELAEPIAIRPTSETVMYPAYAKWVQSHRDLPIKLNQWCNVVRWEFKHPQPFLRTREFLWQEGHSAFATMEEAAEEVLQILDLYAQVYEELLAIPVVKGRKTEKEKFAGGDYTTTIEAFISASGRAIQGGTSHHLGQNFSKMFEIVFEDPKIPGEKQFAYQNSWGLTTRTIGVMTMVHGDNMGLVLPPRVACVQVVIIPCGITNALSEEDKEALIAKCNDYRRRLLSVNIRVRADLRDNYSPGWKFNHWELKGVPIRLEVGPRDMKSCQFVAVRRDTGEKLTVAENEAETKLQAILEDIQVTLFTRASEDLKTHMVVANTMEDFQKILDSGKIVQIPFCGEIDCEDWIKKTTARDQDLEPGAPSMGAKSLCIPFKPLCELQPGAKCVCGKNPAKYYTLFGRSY
How it was run: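 Compound was pre-incubated 60 min with 40 nM His-Avi-hEPRS (998-1512) (stock, E. coli-expressed) in Tris pH 7.5/KCl/DTT/Tween/MgCl2. Reaction began with substrate mix containing 300 μM ATP, 160 μM L-proline, 400 μM [32P]pyrophosphate (stock levels) and ran 30 min at room temperature. Charcoal-bound radioactivity was counted; inhibition was relative to no-reaction control.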

Cn1cc(-c2cc(F)cc(CNC(=O)c3ncnc4nc(C5COCCO5)[nH]c34)c2)cn1 (stereo not drawn) [Example 32, 8-(1,4-dioxan-2-yl)-N-(3-fluoro-5-(1-methyl-1H-pyrazol-4-yl)benzyl)-7H-purine-6-carboxamide]
inhibition at 1 µM [1]: 76% | T/C (%) tumor proliferation rate [2]: -8.2% | inhibition at 0.3 µM [3]: 101%
